Test results: ChEMBL document CHEMBL3352433, “Class II but Not Second Class-Prospects for the Development of Class II PI3K Inhibitors” (ACS Med Chem Lett, 2015)

Experiments:
[1] = target: DNA-dependent protein kinase catalytic subunit (Homo sapiens, UniProt P78527); assay: Inhibition of human DNA-PK by non-radiometric ADP-Glo assay
[2] = target: Phosphatidylinositol 4-phosphate 3-kinase C2 domain-containing subunit beta (Homo sapiens, UniProt O00750); assay: Inhibition of human PI3KC2beta by non-radiometric ADP-Glo assay
[3] = target: Phosphatidylinositol 4-phosphate 3-kinase C2 domain-containing subunit alpha (Homo sapiens, UniProt O00443); assay: Inhibition of human PI3KC2alpha by non-radiometric ADP-Glo assay
[4] = Inhibition of human class 1 PI3K by non-radiometric ADP-Glo assay
[5] = Inhibition of human class 4 PI3K by non-radiometric ADP-Glo assay
[6] = target: Serine/threonine-protein kinase mTOR (Homo sapiens, UniProt P42345); assay: Inhibition of human mTOR by non-radiometric ADP-Glo assay

Sequence of Phosphatidylinositol 4-phosphate 3-kinase C2 domain-containing subunit alpha (O00443 whole entry, the tested form may be a part): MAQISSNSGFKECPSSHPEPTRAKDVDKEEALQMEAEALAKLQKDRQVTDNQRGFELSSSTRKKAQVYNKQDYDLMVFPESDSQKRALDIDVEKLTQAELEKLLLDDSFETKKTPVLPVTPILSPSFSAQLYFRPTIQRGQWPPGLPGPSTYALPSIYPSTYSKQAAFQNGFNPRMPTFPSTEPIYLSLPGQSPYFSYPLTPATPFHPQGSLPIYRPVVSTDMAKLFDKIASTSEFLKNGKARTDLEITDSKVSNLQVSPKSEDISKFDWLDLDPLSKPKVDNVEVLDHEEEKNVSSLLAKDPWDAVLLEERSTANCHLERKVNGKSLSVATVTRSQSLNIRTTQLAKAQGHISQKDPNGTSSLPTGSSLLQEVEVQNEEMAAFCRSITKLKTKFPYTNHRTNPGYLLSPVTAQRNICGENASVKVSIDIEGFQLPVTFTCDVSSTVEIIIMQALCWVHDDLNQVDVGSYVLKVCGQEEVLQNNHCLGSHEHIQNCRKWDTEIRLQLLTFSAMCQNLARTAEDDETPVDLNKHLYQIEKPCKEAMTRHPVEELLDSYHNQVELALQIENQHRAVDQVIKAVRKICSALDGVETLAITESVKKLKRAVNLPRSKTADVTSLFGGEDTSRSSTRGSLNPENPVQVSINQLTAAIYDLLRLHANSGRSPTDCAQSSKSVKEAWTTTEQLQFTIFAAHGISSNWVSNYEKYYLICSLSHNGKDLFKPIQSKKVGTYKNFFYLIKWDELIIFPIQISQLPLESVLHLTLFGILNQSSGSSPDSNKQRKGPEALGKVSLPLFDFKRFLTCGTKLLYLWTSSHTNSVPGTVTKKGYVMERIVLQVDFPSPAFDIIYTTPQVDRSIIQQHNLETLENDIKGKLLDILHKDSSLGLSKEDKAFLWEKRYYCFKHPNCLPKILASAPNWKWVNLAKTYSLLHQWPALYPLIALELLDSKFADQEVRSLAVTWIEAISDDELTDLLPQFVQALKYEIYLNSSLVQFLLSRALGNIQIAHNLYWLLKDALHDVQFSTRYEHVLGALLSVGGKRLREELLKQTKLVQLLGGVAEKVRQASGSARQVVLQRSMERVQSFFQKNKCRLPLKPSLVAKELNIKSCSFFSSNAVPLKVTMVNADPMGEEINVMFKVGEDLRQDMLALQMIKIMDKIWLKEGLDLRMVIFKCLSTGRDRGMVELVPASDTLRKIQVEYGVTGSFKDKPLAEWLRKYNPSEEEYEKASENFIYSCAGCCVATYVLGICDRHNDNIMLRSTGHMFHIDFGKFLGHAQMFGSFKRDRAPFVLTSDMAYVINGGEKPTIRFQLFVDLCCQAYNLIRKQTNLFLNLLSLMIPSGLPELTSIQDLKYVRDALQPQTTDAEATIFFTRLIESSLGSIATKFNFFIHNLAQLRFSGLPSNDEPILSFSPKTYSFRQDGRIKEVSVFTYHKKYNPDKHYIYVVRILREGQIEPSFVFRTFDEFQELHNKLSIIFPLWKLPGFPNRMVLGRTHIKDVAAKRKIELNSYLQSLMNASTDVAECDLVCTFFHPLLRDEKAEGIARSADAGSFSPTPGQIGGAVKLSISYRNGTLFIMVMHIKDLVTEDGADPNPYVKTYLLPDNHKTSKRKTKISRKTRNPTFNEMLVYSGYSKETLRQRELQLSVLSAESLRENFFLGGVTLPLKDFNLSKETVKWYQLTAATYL
Sequence of Phosphatidylinositol 4-phosphate 3-kinase C2 domain-containing subunit beta (O00750 whole entry, the tested form may be a part): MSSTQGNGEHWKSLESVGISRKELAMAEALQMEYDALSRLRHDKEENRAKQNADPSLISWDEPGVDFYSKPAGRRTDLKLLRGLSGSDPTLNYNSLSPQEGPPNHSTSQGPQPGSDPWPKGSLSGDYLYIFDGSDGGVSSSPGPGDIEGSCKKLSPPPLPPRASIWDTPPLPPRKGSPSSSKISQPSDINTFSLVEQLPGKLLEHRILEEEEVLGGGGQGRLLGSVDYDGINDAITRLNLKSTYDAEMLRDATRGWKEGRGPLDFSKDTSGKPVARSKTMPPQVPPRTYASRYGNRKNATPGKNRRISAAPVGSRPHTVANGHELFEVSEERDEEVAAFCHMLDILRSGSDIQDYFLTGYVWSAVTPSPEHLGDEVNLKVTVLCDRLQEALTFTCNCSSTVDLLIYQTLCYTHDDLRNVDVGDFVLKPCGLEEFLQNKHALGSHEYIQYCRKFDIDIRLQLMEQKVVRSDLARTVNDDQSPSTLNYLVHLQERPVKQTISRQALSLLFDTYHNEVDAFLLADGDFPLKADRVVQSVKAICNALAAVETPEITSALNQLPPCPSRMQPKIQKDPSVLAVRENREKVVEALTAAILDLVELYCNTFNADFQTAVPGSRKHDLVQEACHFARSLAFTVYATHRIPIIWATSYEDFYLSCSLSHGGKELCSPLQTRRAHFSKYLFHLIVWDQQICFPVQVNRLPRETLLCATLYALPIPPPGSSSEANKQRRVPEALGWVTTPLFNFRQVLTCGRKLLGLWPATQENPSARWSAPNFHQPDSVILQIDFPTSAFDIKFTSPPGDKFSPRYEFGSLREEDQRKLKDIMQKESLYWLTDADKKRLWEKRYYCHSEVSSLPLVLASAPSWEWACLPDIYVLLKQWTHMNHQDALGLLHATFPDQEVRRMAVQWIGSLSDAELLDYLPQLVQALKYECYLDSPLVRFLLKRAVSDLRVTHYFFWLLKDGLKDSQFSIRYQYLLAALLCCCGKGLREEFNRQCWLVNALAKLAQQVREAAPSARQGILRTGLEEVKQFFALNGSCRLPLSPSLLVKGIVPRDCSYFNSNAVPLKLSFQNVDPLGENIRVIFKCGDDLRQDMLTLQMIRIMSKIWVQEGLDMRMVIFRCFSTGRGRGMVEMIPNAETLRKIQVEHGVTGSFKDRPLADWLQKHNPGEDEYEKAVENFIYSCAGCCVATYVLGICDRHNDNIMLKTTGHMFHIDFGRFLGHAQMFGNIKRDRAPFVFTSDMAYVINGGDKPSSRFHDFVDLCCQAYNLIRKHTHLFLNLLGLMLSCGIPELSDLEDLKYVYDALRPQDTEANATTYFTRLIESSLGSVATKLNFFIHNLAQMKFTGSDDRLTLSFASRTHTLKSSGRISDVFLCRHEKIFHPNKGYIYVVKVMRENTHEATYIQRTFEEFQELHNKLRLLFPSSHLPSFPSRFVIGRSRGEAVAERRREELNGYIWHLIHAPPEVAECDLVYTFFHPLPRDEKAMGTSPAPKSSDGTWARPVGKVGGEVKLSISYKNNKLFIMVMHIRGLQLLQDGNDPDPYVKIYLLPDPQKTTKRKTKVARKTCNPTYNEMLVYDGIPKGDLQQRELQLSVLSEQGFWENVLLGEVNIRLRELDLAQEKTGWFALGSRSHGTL

| SMILES | IC50 [1] | IC50 [2] | IC50 [3] | IC50 [6] | IC50 [4] | IC50 [5] |
| --- | --- | --- | --- | --- | --- | --- |
| CC(=O)Nc1nc(C)c(-c2ccc(Cl)c(S(=O)(=O)NCCO)c2)s1 | 0.064 µM | 0.14 µM | 16 µM |  |  |  |
| COc1ccc2c(c1OC)N=C(NC(=O)c1cccnc1)N1CCN=C21 | 0.013 µM | 0.064 µM | 0.047 µM |  |  |  |
| O=C1NC(=S)S/C1=C/c1ccc2c(c1)N(Cc1ccc(F)c(Cl)c1)C(=O)CO2 | 1.5 µM | 0.37 µM | 0.14 µM |  |  |  |
| CC(=O)Nc1ccc2nc(-c3cccc(NS(=O)(=O)c4cccc5ccccc45)c3)nc(N3CCOCC3)c2c1 |  | 0.53 µM |  |  | > 10 µM | > 100 µM |
| CC(=O)Nc1ccc2nc(-c3cccc(NS(=O)(=O)c4ccccc4)c3)nc(N3CCOCC3)c2c1 |  | 0.63 µM |  |  | > 10 µM | > 100 µM |
| CC[C@H](Nc1ncnc2[nH]cnc12)c1nc2cccc(F)c2c(=O)n1-c1ccccc1 [IDELALISIB] |  | > 1 µM |  |  |  |  |
| CS(=O)(=O)N1CCN(Cc2cc3nc(-c4cccc5[nH]ncc45)nc(N4CCOCC4)c3s2)CC1 [PICTILISIB] |  |  | > 100 µM |  |  |  |

Now from value to compound, other results behind:

| IC50 [1] | IC50 [2] | IC50 [3] | IC50 [6] | SMILES | IC50 [4] | IC50 [5] |
| --- | --- | --- | --- | --- | --- | --- |
|  | 10.4 µM | 27 µM | 3.9 µM | O=c1cc(N2CCOCC2)oc2c(-c3ccccc3)cccc12 [LY-294002] |  |  |
|  |  | 1 µM |  | Oc1cccc(-c2nc(N3CCOCC3)c3oc4ncccc4c3n2)c1 [PI-103] |  |  |
|  | 0.18 µM | > 100 µM | 0.37 µM | FC(F)c1nc2ccccc2n1-c1nc(N2CCOCC2)nc(N2CCOCC2)n1 [ZSTK-474] |  |  |
